Numbered stars: 1 amine (or outer) side, 2 acyl side, 3 side chain; on linkers, the order of the positions; unused ones are H or OH. Bridge positions count the residues as written; N and C are the ends. Ends that are not written are not given here. Peptide text beside a SMILES is read from it. mXylylene = c1cc(C[*:1])cc(C[*:2])c1
Key:
[1] = circular dichroism; settings: PBS; pH 7.4; 25 °C; 5-30 uM
[2] = CD spectroscopy: percent helicity and ellipticity ratio 222/208 nm; type: physicochemical; settings: for % helicity: 5-30 μM peptide, three scans averaged, [θ]222/[θ]max
Description: Circular dichroism (CD) experiments
Concentrations of the stock solution were determined by […] absorption of Trp or 275 nm absorption of Tyr (and TMB, if present in peptides). Each sample was dissolved in 1x PBS (pH 7.4), 10% TFE/PBS or 20% TFE/PBS with the final concentration between 5 to 30 μM. CD spectra were acquired using circular dichroism spectrometer (Chirascan) equipped with a temperature controller using 1 mm cell at a scan speed of 0.5 nm/sec at indicated temperature. Each sample was scanned three times and the averaged spectrum was smoothed.
Calculation of percent helicity
For simplicity, ‘helicity’ or ‘helical’ in the following text all refers to α-type. For each peptide, mean residue ellipticities ([θ]/(c*n), c = concentration of the peptide, n = number of amino acids in the peptide) were used to calculate % helicity, which is an empirical indicator of peptide helicity. […] (n = number of amino acids in the peptide, T = 25.0 °C).

[3] = Amide H-D exchange study (NMR), protection factors; type: physicochemical; settings: for H/D exchange experiment, per-residue value (Fig 5i): amide H-D exchange by NMR
Description: Lyophilized samples of peptides LDLL 12-mer and bicyclo 12-mer from the above experiments were dissolved in 600 µL of D2O/ TFE-d3 mixture (4:1) to initialize the H-D exchange. The pH of the solution was confirmed. Spectra were recorded on a preshimmed Bruker AVANCE 500 MHz spectrometer. The recorded temperature was 33 °C. The intensity changes for each amide proton were determined by monitoring either the NH peaks on 1D spectra or the cross-peaks between NH and RH on 2D TOCSY spectra when overlapping was severe. The peak intensity data was fit into one phase exponential equation to get the exchange rate constants using GraphPad Prism 6.0 program. The rate constants were input into Englander lab’s spreadsheet (https://hx2.med.upenn.edu/download.html) to calculate protection factor and stabilization energy.

[4] = CD in PBS buffer (pH 7.4, 10 mM), 25.0 °C, 1 mm cell

Compound | % helicity [2, 4] [%] | helicity [1] [%] | further results
C[C@H](NC(=O)[C@H](CCCCN)NC(=O)[C@H](C)NC(=O)[C@H](C)NC(=O)[C@H](C)NC(=O)[C@@H]1CSCc2cc3cc(c2)CSC[C@H](NC(=O)[C@@H](N)Cc2c[nH]c4ccccc24)C(=O)N[C@@H](CC(=O)O)C(=O)N[C@@H](C)C(=O)N[C@@H](C)C(=O)N[C@@H](CSC3)C(=O)N1)C(N)=O |  | 59 | 
C[C@H](NC(=O)[C@H](CCCCN)NC(=O)[C@H](C)NC(=O)[C@H](C)NC(=O)[C@H](C)NC(=O)[C@@H]1CSCc2cccc(c2)CSC[C@H](NC(=O)[C@@H](N)Cc2c[nH]c3ccccc23)C(=O)N[C@@H](CC(=O)O)C(=O)N[C@@H](C)C(=O)N[C@@H](C)C(=O)N[C@@H](C)C(=O)N1)C(N)=O (H-WCDAAACAAAKA-NH2; linker 2-7 via mXylylene) |  | 34 | 
C[C@H](NC(=O)[C@H](CCCCN)NC(=O)[C@H](C)NC(=O)[C@H](C)NC(=O)[C@H](C)NC(=O)[C@H](C)NC(=O)[C@@H]1CSCc2cccc(c2)CSC[C@H](NC(=O)[C@@H](N)Cc2c[nH]c3ccccc23)C(=O)N[C@@H](CC(=O)O)C(=O)N[C@@H](C)C(=O)N[C@@H](C)C(=O)N1)C(N)=O (H-WCDAACAAAAKA-NH2; linker 2-6 via mXylylene) |  | 32 | 
CSC[C@H](NC(=O)[C@H](C)NC(=O)[C@H](CCC(N)=O)NC(=O)[C@H](CC(=O)O)NC(=O)[C@@H](N)CSC)C(=O)N[C@@H](CSC)C(=O)N[C@@H](CC(C)C)C(=O)N[C@@H](CC(C)C)C(=O)N[C@@H](CCCNC(=N)N)C(=O)N[C@@H](C)C(=O)N[C@@H](CC(C)C)C(=O)N[C@@H](CC(=O)O)C(=O)N[C@@H](CCC(N)=O)C(=O)N[C@@H](Cc1ccc(O)cc1)C(N)=O [2m] (H-C(Me)DQAC(Me)C(Me)LLRALDQY-NH2; N-terminus and C-terminus assumed) | 10 | 10 | ellipticity ratio 222/208 nm ([2]; CD in 10% TFE/PBS, 25 °C): 0.44; % helicity ([2]; CD in 10% TFE/PBS, 25 °C): 24%; ellipticity ratio 222/208 nm ([2]; CD in PBS, 25 °C): 0.23
C[C@H](NC(=O)[C@H](CCCCN)NC(=O)[C@H](C)NC(=O)[C@H](C)NC(=O)[C@H](C)NC(=O)[C@@H]1CSCc2cc3cc(c2)CSC[C@H](NC(=O)[C@@H](N)Cc2c[nH]c4ccccc24)C(=O)N[C@@H](CC(=O)O)C(=O)N[C@@H](C)C(=O)N[C@@H](C)C(=O)N[C@@H](CSC3)C(=O)N1)C(N)=O [Bicyclo-short] |  |  | H/D exchange experiment, per-residue value (Fig 5i) ([3]; resi ID 3): 1.33; H/D exchange experiment, per-residue value (Fig 5i) ([3]; resi ID 4): 1.81; H/D exchange experiment, per-residue value (Fig 5i) ([3]; resi ID 5): 2.88; H/D exchange experiment, per-residue value (Fig 5i) ([3]; resi ID 6): 3.7; H/D exchange experiment, per-residue value (Fig 5i) ([3]; resi ID 7): 2.57; H/D exchange experiment, per-residue value (Fig 5i) ([3]; resi ID 8): 2.46; H/D exchange experiment, per-residue value (Fig 5i) ([3]; resi ID 9): 2.32; H/D exchange experiment, per-residue value (Fig 5i) ([3]; resi ID 10): 2.24
Ac-AAAAKAAAAKAAAAKAAAAKAW-NH2 [AAKA 22-mer] | 64 | 64 | 
Ac-AAAAKAAAAKAAAAKAW-NH2 [AAKA] | 48 | 48 | 
Ac-AAAAKAAAAKAW-NH2 [AAKA 12-mer] | 17 | 17 | ellipticity ratio 222/208 nm ([2]; CD in 10% TFE/PBS, 25 °C): 0.47; % helicity ([2]; CD in 10% TFE/PBS, 25 °C): 35%; ellipticity ratio 222/208 nm ([2]; CD in PBS, 25 °C): 0.26
Ac-ADAAAAAAAKAAAAKAW-NH2 [ADAA] | 55 | 55 | 
Ac-ADAALLAAAKAAAAKAW-NH2 [ADLL] | 45 | 45 | 
Ac-FDAALLAAAKAAAAKAW-NH2 [FDLL] | 53 | 53 | 
Ac-IDAALLAAAKAAAAKAW-NH2 [IDLL] | 69 | 69 | 
Ac-LDAALLAAAKAW-NH2 |  | 28 | 
Ac-LDAALLAAAKAW-NH2 [LDLL-short] |  |  | H/D exchange experiment, per-residue value (Fig 5i) ([3]; resi ID 1): 0.3; H/D exchange experiment, per-residue value (Fig 5i) ([3]; resi ID 3): 1.3; H/D exchange experiment, per-residue value (Fig 5i) ([3]; resi ID 4): 1.66; H/D exchange experiment, per-residue value (Fig 5i) ([3]; resi ID 5): 1.96; H/D exchange experiment, per-residue value (Fig 5i) ([3]; resi ID 6): 1.83; H/D exchange experiment, per-residue value (Fig 5i) ([3]; resi ID 7): 1.96; H/D exchange experiment, per-residue value (Fig 5i) ([3]; resi ID 9): 2.2; H/D exchange experiment, per-residue value (Fig 5i) ([3]; resi ID 10): 1.69; H/D exchange experiment, per-residue value (Fig 5i) ([3]; resi ID 11): 1.68
Ac-QAEELLRALDQY-NH2 [2l] | 13 | 13 | ellipticity ratio 222/208 nm ([2]; CD in 10% TFE/PBS, 25 °C): 0.53; % helicity ([2]; CD in 10% TFE/PBS, 25 °C): 23%; ellipticity ratio 222/208 nm ([2]; CD in PBS, 25 °C): 0.27
Ac-QVARQLAEIY-NH2 [1l] | 16 | 16 | ellipticity ratio 222/208 nm ([2]; CD in 10% TFE/PBS, 25 °C): 0.64; % helicity ([2]; CD in 10% TFE/PBS, 25 °C): 20%; ellipticity ratio 222/208 nm ([2]; CD in PBS, 25 °C): 0.48
WCAAACCAAAKA (also: bicyclic or more (positions not given here)) [bicyclo-D/A 12-mer, bicyclo 12-mer with Asp Ncap replaced with Ala] |  |  | reduction of helicity on substitution of Asp Ncap by Ala ([2]; CD in PBS, relative to bicyclo 12-mer): 49%

The next lines start with results.

% helicity [2, 4] [%] | Compound | helicity [1] [%] | further results
59 | C[C@H](NC(=O)[C@H](CCCCN)NC(=O)[C@H](C)NC(=O)[C@H](C)NC(=O)[C@H](C)NC(=O)[C@@H]1CSCc2cc3cc(c2)CSC[C@H](NC(=O)[C@@H](N)Cc2c[nH]c4ccccc24)C(=O)N[C@@H](CC(=O)O)C(=O)N[C@@H](C)C(=O)N[C@@H](C)C(=O)N[C@@H](CSC3)C(=O)N1)C(N)=O [bicyclo 12-mer] |  | ellipticity ratio 222/208 nm ([2]; CD in 10% TFE/PBS, 25 °C): 1.21; % helicity ([2]; CD in 10% TFE/PBS, 25 °C): 72%; ellipticity ratio 222/208 nm ([2]; CD in PBS, 25 °C): 0.76; protection factors (H/D exchange) around the capping region ([3]; D2O/TFE-d3 (4:1), 33 °C, NMR 500 MHz): significantly higher than for the linear LDLL 12-mer
45 | Ac-LAAALLAAAKAAAAKAW-NH2 [LALL] | 45 | 
69 | Ac-LDAAALAAAKAAAAKAW-NH2 [LDAL] | 69 | 
52 | Ac-LDAAELAAAKAAAAKAW-NH2 [LDEL] | 52 | 
69 | Ac-LDAAFLAAAKAAAAKAW-NH2 [LDFL] | 69 | 
39 | Ac-LDAALAAAAKAAAAKAW-NH2 [LDLA] | 39 | 
83 | Ac-LDAALFAAAKAAAAKAW-NH2 [LDLF] | 83 | 
52 | Ac-LDAALIAAAKAAAAKAW-NH2 [LDLI] | 52 | 
101 | Ac-LDAALLAAAKAAAAKAAAAKAW-NH2 [LDLL 22-mer] | 101 | 
93 | Ac-LDAALLAAAKAAAAKAW-NH2 [LDLL] | 93 | 
28 | Ac-LDAALLAAAKAW-NH2 [LDLL 12-mer] |  | ellipticity ratio 222/208 nm ([2]; CD in 10% TFE/PBS, 25 °C): 0.57; % helicity ([2]; CD in 10% TFE/PBS, 25 °C): 43%; ellipticity ratio 222/208 nm ([2]; CD in PBS, 25 °C): 0.39
70 | Ac-LDAALVAAAKAAAAKAW-NH2 [LDLV] | 70 | 
37 | Ac-LDAAQLAAAKAAAAKAW-NH2 [LDQL] | 37 | 
67 | Ac-LDAASLAAAKAAAAKAW-NH2 [LDSL] | 67 | 
63 | Ac-LDAATLAAAKAAAAKAW-NH2 [LDTL] | 63 | 
48 | Ac-VDAALLAAAKAAAAKAW-NH2 [VDLL] | 48 | 
